Data reported in PubChem BioAssay (NCI).
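Cultured in 96-well plates, cells were exposed to test compound for 48 hours across five concentrations. The concentration for 50% growth inhibition is given as GI50. TGI: total growth inhibition.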

Tests used:
Test in all cases: NCI-60 cell line screen, 48 h
[1] = test system: OVCAR-3 ovarian
[2] = test system: DU-145 prostate
[3] = test system: A498 renal
[4] = test system: SK-MEL-28 melanoma
[5] = test system: UACC-257 melanoma
[6] = test system: SNB-75 CNS
[7] = test system: MDA-MB-435
[8] = test system: CCRF-CEM leukemia
[9] = test system: MOLT-4 leukemia
[10] = test system: MCF7 breast
[11] = test system: OVCAR-8 ovarian
[12] = test system: SF-268 CNS
[13] = test system: NCI-H460 lung
[14] = test system: SNB-19 CNS
[15] = test system: ACHN renal
[16] = test system: NCI-H23 lung
[17] = test system: BT-549 breast
[18] = test system: MDA-MB-231 breast
[19] = test system: HOP-92 NSCLC
[20] = test system: PC-3 prostate
[21] = test system: COLO 205 colon
[22] = test system: KM12 colon
[23] = test system: HCT-116 colon
[24] = test system: A549 NSCLC
[25] = test system: HOP-62 NSCLC
[26] = test system: U251 CNS
[27] = test system: NCI/ADR-RES ovarian
[28] = test system: RXF 393 renal
[29] = test system: OVCAR-4 ovarian
[30] = test system: EKVX NSCLC
[31] = test system: TK-10 renal
[32] = test system: NCI-H226 lung
[33] = test system: SF-539 CNS
[34] = test system: 786-0 renal
[35] = test system: SW-620 colon
[36] = test system: SF-295 CNS
[37] = test system: SK-MEL-5 melanoma
[38] = test system: M14 melanoma
[39] = test system: T-47D breast
[40] = test system: NCI-H522 lung
[41] = test system: HT29 colon
[42] = test system: MALME-3M melanoma
[43] = test system: LOX IMVI melanoma
[44] = test system: UACC-62 melanoma
[45] = test system: UO-31 renal
[46] = test system: SK-OV-3 ovarian
[47] = test system: SN12C renal
[48] = test system: OVCAR-5 ovarian
[49] = test system: SR leukemia
[50] = test system: HL-60(TB) leukemia
[51] = test system: HCT-15 colon
[52] = test system: HCC-2998 colon
[53] = test system: SK-MEL-2 melanoma
[54] = test system: CAKI-1 renal
[55] = test system: IGROV1 ovarian
[56] = test system: HS 578T breast
[57] = test system: K-562 leukemia
[58] = test system: RPMI-8226 leukemia

## CCCCCCCCn1ccc2cc(NC(=O)Cn3cc(CN4CCCCC4)nn3)ccc21
[1]
  GI50: 3.42 µM
  TGI: 13.3 µM
[2]
  GI50: 4.1 µM
  TGI: 14.4 µM
[3]
  GI50: 5.05 µM
  TGI: 19.5 µM
[4]
  GI50: 1.75 µM
  TGI: 3.29 µM
[5]
  GI50: 2.01 µM
  TGI: 4.45 µM
[6]
  GI50: 1.51 µM
  TGI: 2.96 µM
[7]
  GI50: 1.68 µM
  TGI: 3.15 µM
[8]
  GI50: 2.01 µM
  TGI: 7.74 µM
[9]
  GI50: 2.59 µM
  TGI: 7.23 µM
[10]
  GI50: 1.85 µM
  TGI: 4.29 µM
[11]
  GI50: 2.98 µM
  TGI: 9.3 µM
[12]
  GI50: 2.05 µM
  TGI: 4.51 µM
[13]
  GI50: 1.89 µM
  TGI: 3.67 µM
[14]
  GI50: 1.82 µM
  TGI: 3.65 µM
[15]
  GI50: 1.72 µM
  TGI: 3.19 µM
[16]
  GI50: 2.35 µM
  TGI: 6.34 µM
[17]
  GI50: 10.2 µM
  TGI: 23.2 µM
[18]
  GI50: 1.8 µM
  TGI: 3.52 µM
[19]
  GI50: 0.601 µM
  TGI: 2.21 µM
[20]
  GI50: 1.43 µM
  TGI: 3.05 µM
[21]
  GI50: 1.84 µM
  TGI: 3.68 µM
[22]
  GI50: 2.23 µM
  TGI: 5 µM
[23]
  GI50: 1.7 µM
  TGI: 3.19 µM
[24]
  GI50: 1.99 µM
  TGI: 4.57 µM
[25]
  GI50: 1.89 µM
  TGI: 3.75 µM
[26]
  GI50: 1.78 µM
  TGI: 3.34 µM
[27]
  GI50: 2.92 µM
  TGI: 10.2 µM
[28]
  GI50: 1.46 µM
  TGI: 3.06 µM
[29]
  GI50: 3.66 µM
  TGI: 14.3 µM
[30]
  GI50: 2.89 µM
  TGI: 13.9 µM
[31]
  GI50: 2.44 µM
  TGI: 6.63 µM
[32]
  GI50: 8.65 µM
  TGI: 27.7 µM
[33]
  GI50: 1.81 µM
  TGI: 3.26 µM
[34]
  GI50: 1.8 µM
  TGI: 3.44 µM
[35]
  GI50: 1.84 µM
  TGI: 3.59 µM
[36]
  GI50: 1.81 µM
  TGI: 3.65 µM
[37]
  GI50: 1.77 µM
  TGI: 3.16 µM
[38]
  GI50: 1.78 µM
  TGI: 3.43 µM
[39]
  GI50: 1.99 µM
  TGI: 4.31 µM
[40]
  GI50: 1.8 µM
  TGI: 4 µM
[41]
  GI50: 2.02 µM
  TGI: 4.28 µM
[42]
  GI50: 1.58 µM
  TGI: 3 µM
[43]
  GI50: 1.63 µM
  TGI: 3.17 µM
[44]
  GI50: 1.81 µM
  TGI: 3.51 µM
[45]
  GI50: 1.34 µM
  TGI: 2.62 µM
[46]
  GI50: 1.89 µM
  TGI: 3.97 µM
[47]
  GI50: 1.8 µM
  TGI: 3.75 µM
[48]
  GI50: 1.78 µM
  TGI: 3.71 µM
[49]
  GI50: 1.67 µM
  TGI: > 100 µM
[50]
  GI50: 1.98 µM
  TGI: 4.15 µM
[51]
  GI50: 1.96 µM
  TGI: 4.11 µM
[52]
  GI50: 1.66 µM
  TGI: 3.28 µM
[53]
  GI50: 1.9 µM
  TGI: 3.68 µM
[54]
  GI50: 1.52 µM
  TGI: 2.99 µM
[55]
  GI50: 1.88 µM
  TGI: 3.97 µM
[56]
  GI50: 1.96 µM
  TGI: 4.84 µM

## CC(=O)Oc1ccc(/C(=C(\C)c2ccc(Cl)cc2)c2ccc(OCCN3CCCCC3)cc2)cc1
[1]
  GI50: 1.65 µM
  TGI: 3.25 µM
[2]
  GI50: 1.92 µM
  TGI: 3.83 µM
[3]
  GI50: 3.62 µM
  TGI: 15.2 µM
[4]
  GI50: 2.01 µM
  TGI: 3.89 µM
[5]
  GI50: 2.05 µM
  TGI: 4.11 µM
[6]
  GI50: 1.55 µM
  TGI: 3.77 µM
[7]
  GI50: 1.7 µM
  TGI: 3.26 µM
[8]
  GI50: 2.2 µM
  TGI: 6.67 µM
[9]
  GI50: 1.73 µM
  TGI: 5.36 µM
[10]
  TGI: 2.55 µM
[11]
  GI50: 2.15 µM
  TGI: 4.88 µM
[12]
  GI50: 1.82 µM
  TGI: 3.86 µM
[13]
  GI50: 1.91 µM
  TGI: 3.66 µM
[14]
  GI50: 2.26 µM
  TGI: 5.8 µM
[15]
  GI50: 2.13 µM
  TGI: 4.03 µM
[16]
  GI50: 1.82 µM
  TGI: 4.43 µM
[17]
  GI50: 1.83 µM
  TGI: 3.58 µM
[18]
  GI50: 2.04 µM
  TGI: 3.89 µM
[19]
  GI50: 1.64 µM
  TGI: 4.42 µM
[20]
  GI50: 1.74 µM
  TGI: 3.88 µM
[21]
  GI50: 1.79 µM
  TGI: 3.5 µM
[22]
  GI50: 1.77 µM
  TGI: 3.97 µM
[23]
  GI50: 1.34 µM
  TGI: 2.72 µM
[24]
  GI50: 1.94 µM
  TGI: 4.15 µM
[57]
  GI50: 1.21 µM
  TGI: 3.59 µM
[25]
  GI50: 2.05 µM
  TGI: 4.23 µM
[26]
  GI50: 1.66 µM
  TGI: 3.27 µM
[27]
  GI50: 1.97 µM
  TGI: 5.44 µM
[28]
  GI50: 1.46 µM
  TGI: 3 µM
[29]
  GI50: 1.93 µM
  TGI: 5.43 µM
[30]
  GI50: 2.15 µM
  TGI: 6.32 µM
[58]
  GI50: 2.1 µM
  TGI: 4.64 µM
[32]
  GI50: 6.39 µM
  TGI: 22.9 µM
[33]
  GI50: 1.84 µM
  TGI: 3.57 µM
[34]
  GI50: 1.59 µM
  TGI: 3.16 µM
[35]
  GI50: 1.85 µM
  TGI: 3.93 µM
[36]
  GI50: 1.72 µM
  TGI: 3.27 µM
[37]
  GI50: 1.69 µM
  TGI: 3.07 µM
[38]
  GI50: 1.69 µM
  TGI: 3.17 µM
[39]
  GI50: 1.09 µM
  TGI: 4.37 µM
[40]
  GI50: 1.71 µM
  TGI: 3.49 µM
[41]
  GI50: 1.19 µM
  TGI: 3.24 µM
[42]
  GI50: 1.96 µM
  TGI: 3.91 µM
[43]
  GI50: 1.65 µM
  TGI: 3.01 µM
[44]
  GI50: 1.86 µM
  TGI: 3.73 µM
[45]
  GI50: 1.59 µM
  TGI: 3.09 µM
[46]
  GI50: 2.31 µM
  TGI: 6.09 µM
[47]
  GI50: 1.69 µM
  TGI: 3.52 µM
[48]
  GI50: 2.72 µM
  TGI: 8.35 µM
[49]
  GI50: 0.739 µM
  TGI: 3.06 µM
[50]
  GI50: 2.09 µM
  TGI: 4.35 µM
[51]
  GI50: 1.61 µM
  TGI: 3.19 µM
[52]
  GI50: 1.87 µM
  TGI: 3.68 µM
[53]
  GI50: 1.85 µM
  TGI: 3.56 µM
[55]
  GI50: 2.35 µM
  TGI: 5.14 µM
[56]
  GI50: 2.14 µM
  TGI: 4.82 µM
